The values that follow come from patent US7943636B2 (dated 2011).

The melting point is the temperature of the solid-liquid transition. `CCCn1nc2c(N)nc3ccccc3c2c1CC1(O)CCC1` showed a melting point of 191 to 193 °C. Next, `CCn1nc2c(N)nc3ccccc3c2c1CC1(O)CCOCC1`: 253 to 255 °C. `CCn1nc2c(N)nc3ccccc3c2c1CC1(O)CCCCC1`: the melting point was 211.5 to 213 °C. In the case of `CCn1nc2c(N)nc3ccccc3c2c1CC1(O)CCCC1` it was 256 to 259 °C. Next, `CCn1nc2c(N)nc3ccccc3c2c1CC1(O)CCC1`: 245 to 247 °C. Next, `CCn1nc2c(N)nc3ccccc3c2c1CC1(O)CCSCC1`: 251.5 to 255 °C; `CCn1nc2c(N)nc3ccccc3c2c1CC1(O)CCN(C(C)=O)CC1`: 231 to 232.5 °C. Turning to `CCn1nc2c(N)nc3ccccc3c2c1CC1(O)CCN(S(C)(=O)=O)CC1`, the melting point is 268 to 270 °C.

The compound `CCCNC(=O)N1CCC(O)(Cc2c3c(nn2CC)c(N)nc2ccccc23)CC1` returned a melting point of 208.5 to 210 °C. `CCn1nc2c(N)nc3ccccc3c2c1CC1CCOCC1` yielded a melting point of 226 to 228 °C. For the compound `CCn1nc2c(N)nc3c(c2c1CC1(O)CCCCC1)CCCC3`, the melting point lay within 232 to 234 °C. In the case of `CCCn1nc2c(N)nc3ccccc3c2c1CC1(O)CCOCC1` it was 209 to 211 °C; in that of `Cn1nc2c(N)nc3ccccc3c2c1CC1(F)CCN(S(C)(=O)=O)CC1`, 283 to 285 °C; in that of `CC(=O)N1CCC(F)(Cc2c3c(nn2C)c(N)nc2ccccc23)CC1`, 241 to 243 °C. Compound `CC(C)NC(=O)N1CCC(F)(Cc2c3c(nn2C)c(N)nc2ccccc23)CC1` registered a melting point of 241 to 244 °C.

For the compound `CCn1nc2c(N)nc3ccccc3c2c1CC1(F)CCN(S(C)(=O)=O)CC1`, the melting point lay within 269 to 271 °C. In turn, `CCn1nc2c(N)nc3ccccc3c2c1CC1(F)CCN(C(C)=O)CC1` yielded a melting point of 228 to 230 °C. Next, `CCn1nc2c(N)nc3ccccc3c2c1CC1(F)CCN(C(=O)NC(C)C)CC1`: 205 to 207 °C. Next, `CCCn1nc2c(N)nc3ccccc3c2c1CC1(F)CCN(S(C)(=O)=O)CC1`: 268 to 270 °C (dec.); `CCCn1nc2c(N)nc3ccccc3c2c1CC1(F)CCN(C(=O)NC(C)C)CC1`: 227 to 229 °C (dec.). In the case of `CCCn1nc2c(N)nc3ccccc3c2c1CC1CCOCC1` it was 218 to 220 °C; in that of `CCCn1nc2c(N)nc3ncccc3c2c1CC1CCOCC1`, 252 to 255 °C; in that of `COCCn1nc2c(N)nc3ccccc3c2c1CC1CCOCC1`, 189 to 190 °C. The compound `COCCn1nc2c(N)nc3ncccc3c2c1CC1CCOCC1` yielded a melting point of 230 to 233 °C. Compound `Cn1nc2c(N)nc3ccccc3c2c1CC1(F)CCOCC1` gave a melting point of 252 to 254 °C.

`Cn1nc2c(N)nc3ccccc3c2c1CC1(O)CCOCC1`: the melting point is 260 to 262 °C (dec.). The compound `CCn1nc2c(N)nc3ccccc3c2c1CC1(F)CCOCC1` returned a melting point of 275 to 277 °C.
